Results: patent US10004701B2, “Methods and compositions for treating infection” (UNIVERSITY OF ROCHESTER, priority 2012, dated 2018)
Counter-ions that a name gives are not always drawn. Like-named read-outs stand apart in the source and are kept apart here.

Assays:
Experiment in all cases: AK assay 384-well format, Prestwick library screening
P. aeruginosa = assay type: cell-based, Pseudomonas aeruginosa; conditions: 50 μM final drug concentration; for fold induction at 50 µM: Pseudomonas aeruginosa, 3 h
[1] = tested on: A. baumannii strain 98-37-09; assay type: cell-based, Acinetobacter baumannii; conditions: 50 μM final drug concentration; for fold induction at 50 µM: Acinetobacter baumannii, 983709, 3 h
E. cloacae = assay type: cell-based, Enterobacter cloacae; conditions: 50 μM final drug concentration; for fold induction at 50 µM: Enterobacter cloacae, 3 h
[2] = tested on: S. aureus strain USA300-0114; assay type: cell-based, Staphylococcus aureus; conditions: 50 μM final drug concentration; for fold induction at 50 µM: Staphylococcus aureus, USA300, 3 h
E. faecium = assay type: cell-based, Enterococcus faecium; conditions: 50 μM final drug concentration; for fold induction at 50 µM: Enterococcus faecium, 3 h
E. coli = assay type: cell-based, Escherichia coli; conditions: 50 μM final drug concentration; for fold induction at 50 µM: Escherichia coli, 3 h
K. pneumoniae = assay type: cell-based, Klebsiella pneumoniae; conditions: 50 μM final drug concentration; for fold induction at 50 µM: Klebsiella pneumoniae, 3 h
[3] = planktonic P. aeruginosa, 384-well, cutoff for positive-scoring molecules 3-fold increase, read-out: AK-based Prestwick Library Screening Results: P. aeruginosa (increase in extracellular AK activity)
[4] = planktonic A. baumannii, 384-well, cutoff for positive-scoring molecules 3-fold increase, read-out: AK-based Prestwick Library Screening Results: A. baumannii (increase in extracellular AK activity)
[5] = planktonic E. cloacae, 384-well, cutoff for positive-scoring molecules 3-fold increase, read-out: AK-based Prestwick Library Screening Results: E. cloacae (increase in extracellular AK activity)
[6] = planktonic S. aureus, 384-well, cutoff for positive-scoring molecules 3-fold increase, read-out: AK-based Prestwick Library Screening Results: S. aureus (increase in extracellular AK activity)
[7] = planktonic E. faecium, 384-well, cutoff for positive-scoring molecules 3-fold increase, read-out: AK-based Prestwick Library Screening Results: E. faecium (increase in extracellular AK activity)
[8] = planktonic E. coli, 384-well, cutoff for positive-scoring molecules 3-fold increase, read-out: AK-based Prestwick Library Screening Results: E. coli (increase in extracellular AK activity)
[9] = planktonic K. pneumoniae, 384-well, cutoff for positive-scoring molecules 3-fold increase, read-out: AK-based Prestwick Library Screening Results: K. pneumoniae (increase in extracellular AK activity)
[10] = planktonic, cutoff for positive 3-fold increase

For `c1ccc(CC2=NCCN2)cc1` [Tolazoline hydrochloride], the fold induction at 50 µM (P. aeruginosa; [3]) was 1.1, the fold induction at 50 µM [1, 4] was 1.3 and the fold induction at 50 µM (E. cloacae; [5]) was 1.5. For the same compound, the fold induction at 50 µM [2, 6] was 1.2, the fold induction at 50 µM (E. faecium; [7]) was 1 and the fold induction at 50 µM (E. coli; [8]) was 1.4. It also gave a fold induction at 50 µM (K. pneumoniae; [9]) of 1.
In the case of (−)-MK 801 hydrogen maleate, the “AK-based Prestwick Library Screening Results, P. aeruginosa (fold increase in extracellular AK activity)” value (P. aeruginosa; […]) is reported as 1.3, the “AK-based Prestwick Library Screening Results, A. baumannii (fold increase in extracellular AK activity)” value ([1]; […]) is reported as 1.1 and the “AK-based Prestwick Library Screening Results, E. cloacae (fold increase in extracellular AK activity)” value (E. cloacae; […]) is reported as 1.9. The “AK-based Prestwick Library Screening Results, S. aureus (fold increase in extracellular AK activity)” value ([2]; […]) was 1.1, the “AK-based Prestwick Library Screening Results, E. faecium (fold increase in extracellular AK activity)” value (E. faecium; […]) was 1.0 and the “AK-based Prestwick Library Screening Results, E. coli (fold increase in extracellular AK activity)” value (E. coli; […]) was 1.2. For the same compound, the “AK-based Prestwick Library Screening Results, K. pneumoniae (fold increase in extracellular AK activity)” value (K. pneumoniae; […]) was 1.0.
`CC(=O)O[C@]1(C(C)=O)CC[C@H]2[C@@H]3C=C(Cl)C4=CC(=O)[C@@H]5C[C@@H]5[C@]4(C)[C@H]3CC[C@@]21C` [Cyproterone acetate] showed a fold induction at 50 µM (P. aeruginosa; planktonic P. aeruginosa, positive cutoff 3-fold increase, read-out: AK-based Prestwick library screening result, P. aeruginosa (fold increase in extracellular AK activity)) of 0.8, a fold induction at 50 µM ([1]; planktonic A. baumannii, positive cutoff 3-fold increase, read-out: AK-based Prestwick library screening result, A. baumannii (fold increase in extracellular AK activity)) of 0.8 and a fold induction at 50 µM (E. cloacae; planktonic E. cloacae, positive cutoff 3-fold increase, read-out: AK-based Prestwick library screening result, E. cloacae (fold increase in extracellular AK activity)) of 1.4. For the same compound, the fold induction at 50 µM ([2]; planktonic S. aureus, positive cutoff 3-fold increase, read-out: AK-based Prestwick library screening result, S. aureus (fold increase in extracellular AK activity)) was 0.6, the fold induction at 50 µM (E. faecium; planktonic E. faecium, positive cutoff 3-fold increase, read-out: AK-based Prestwick library screening result, E. faecium (fold increase in extracellular AK activity)) was 1 and the fold induction at 50 µM (E. coli; planktonic E. coli, positive cutoff 3-fold increase, read-out: AK-based Prestwick library screening result, E. coli (fold increase in extracellular AK activity)) was 0.8. For the same compound, the fold induction at 50 µM (K. pneumoniae; planktonic K. pneumoniae, positive cutoff 3-fold increase, read-out: AK-based Prestwick library screening result, K. pneumoniae (fold increase in extracellular AK activity)) was 0.7.
`Cc1ccccc1OCC(O)CO` (stereo not shown) [Mephenesin] was tested, and the fold induction at 50 µM (P. aeruginosa; 384-well format, cutoff for positive-scoring molecules 3-fold increase, read-out: AK-based Prestwick Library Screening Results, P. aeruginosa (increase in extracellular AK activity)) was 0.6, the fold induction at 50 µM ([1]; 384-well format, cutoff for positive-scoring molecules 3-fold increase, read-out: AK-based Prestwick Library Screening Results, A. baumannii (increase in extracellular AK activity)) was 0.8 and the fold induction at 50 µM (E. cloacae; 384-well format, cutoff for positive-scoring molecules 3-fold increase, read-out: AK-based Prestwick Library Screening Results, E. cloacae (increase in extracellular AK activity)) was 0.8. It also gave a fold induction at 50 µM ([2]; 384-well format, cutoff for positive-scoring molecules 3-fold increase, read-out: AK-based Prestwick Library Screening Results, S. aureus (increase in extracellular AK activity)) of 0.8, a fold induction at 50 µM (E. faecium; 384-well format, cutoff for positive-scoring molecules 3-fold increase, read-out: AK-based Prestwick Library Screening Results, E. faecium (increase in extracellular AK activity)) of 1 and a fold induction at 50 µM (E. coli; 384-well format, cutoff for positive-scoring molecules 3-fold increase, read-out: AK-based Prestwick Library Screening Results, E. coli (increase in extracellular AK activity)) of 0.7. For the same compound, the fold induction at 50 µM (K. pneumoniae; 384-well format, cutoff for positive-scoring molecules 3-fold increase, read-out: AK-based Prestwick Library Screening Results, K. pneumoniae (increase in extracellular AK activity)) was 0.7.
For `CN1C[C@H](CO)C=C2c3cccc4[nH]cc(c34)C[C@H]21` [Lysergol], the “AK-based Prestwick Library Screening Results, P. aeruginosa (fold increase in extracellular AK activity)” value (P. aeruginosa; planktonic, […]) was 1.1, the “AK-based Prestwick Library Screening Results, A. baumannii (fold increase in extracellular AK activity)” value ([1]; planktonic, […]) was 1.0 and the “AK-based Prestwick Library Screening Results, E. cloacae (fold increase in extracellular AK activity)” value (E. cloacae; planktonic, […]) was 1.6. For the same compound, the “AK-based Prestwick Library Screening Results, S. aureus (fold increase in extracellular AK activity)” value ([2]; planktonic, […]) was 0.9, the “AK-based Prestwick Library Screening Results, E. faecium (fold increase in extracellular AK activity)” value (E. faecium; planktonic, […]) was 0.9 and the “AK-based Prestwick Library Screening Results, E. coli (fold increase in extracellular AK activity)” value (E. coli; planktonic, […]) was 1.1. The “AK-based Prestwick Library Screening Results, K. pneumoniae (fold increase in extracellular AK activity)” value (K. pneumoniae; planktonic, […]) was 0.8.
For `CCN(CC)CC#CCOC(=O)C(O)(c1ccccc1)C1CCCCC1` (stereo not shown) [Oxybutynin chloride], the fold induction at 50 µM (P. aeruginosa; [3]) was 1, the fold induction at 50 µM [1, 4] was 1.1 and the fold induction at 50 µM (E. cloacae; [5]) was 1.6. It also gave a fold induction at 50 µM [2, 6] of 1.2, a fold induction at 50 µM (E. faecium; [7]) of 1.1 and a fold induction at 50 µM (E. coli; [8]) of 1.4. The fold induction at 50 µM (K. pneumoniae; [9]) was 0.9.
In the case of `O=C(O)c1cc(-c2ccc(F)cc2F)ccc1O` [Diflunisal], the fold induction at 50 µM (P. aeruginosa; 384-well format, […], read-out: AK-based Prestwick Library Screening Results, P. aeruginosa (increase in extracellular AK activity)) is reported as 0.6, the fold induction at 50 µM ([1]; 384-well format, […], read-out: AK-based Prestwick Library Screening Results, A. baumannii (increase in extracellular AK activity)) is reported as 0.7 and the fold induction at 50 µM (E. cloacae; 384-well format, […], read-out: AK-based Prestwick Library Screening Results, E. cloacae (increase in extracellular AK activity)) is reported as 1.2. The fold induction at 50 µM ([2]; 384-well format, […], read-out: AK-based Prestwick Library Screening Results, S. aureus (increase in extracellular AK activity)) was 0.6, the fold induction at 50 µM (E. faecium; 384-well format, […], read-out: AK-based Prestwick Library Screening Results, E. faecium (increase in extracellular AK activity)) was 0.9 and the fold induction at 50 µM (E. coli; 384-well format, […], read-out: AK-based Prestwick Library Screening Results, E. coli (increase in extracellular AK activity)) was 0.7. For the same compound, the fold induction at 50 µM (K. pneumoniae; 384-well format, […], read-out: AK-based Prestwick Library Screening Results, K. pneumoniae (increase in extracellular AK activity)) was 0.6.
With `CNC(=O)c1c(I)c(C(=O)NCC(=O)Nc2c(I)c(C(=O)O)c(I)c(C(=O)NCCO)c2I)c(I)c(N(C)C(C)=O)c1I` [loxaglic acid] the “AK-based Prestwick library screening result, P. aeruginosa (fold increase in extracellular AK activity)” value (P. aeruginosa; planktonic P. aeruginosa, positive cutoff 3-fold increase) was 0.8, the “AK-based Prestwick library screening result, A. baumannii (fold increase in extracellular AK activity)” value ([1]; planktonic A. baumannii, positive cutoff 3-fold increase) was 0.8 and the “AK-based Prestwick library screening result, E. cloacae (fold increase in extracellular AK activity)” value (E. cloacae; planktonic E. cloacae, positive cutoff 3-fold increase) was 1.1. For the same compound, the “AK-based Prestwick library screening result, S. aureus (fold increase in extracellular AK activity)” value ([2]; planktonic S. aureus, positive cutoff 3-fold increase) was 0.6, the “AK-based Prestwick library screening result, E. faecium (fold increase in extracellular AK activity)” value (E. faecium; planktonic E. faecium, positive cutoff 3-fold increase) was 0.9 and the “AK-based Prestwick library screening result, E. coli (fold increase in extracellular AK activity)” value (E. coli; planktonic E. coli, […]) was 0.9. For the same compound, the “AK-based Prestwick library screening result, K. pneumoniae (fold increase in extracellular AK activity)” value (K. pneumoniae; planktonic K. pneumoniae, positive cutoff 3-fold increase) was 0.8.
`COc1ccccc1N1CCN(CCCNc2cc(=O)n(C)c(=O)n2C)CC1` [Urapidil hydrochloride] was tested, and the fold induction at 50 µM (P. aeruginosa; planktonic, cutoff for positive-scoring molecules 3-fold increase, read-out: AK-based Prestwick Library Screening Results, P. aeruginosa (fold increase in extracellular AK activity)) was 1, the fold induction at 50 µM ([1]; planktonic, cutoff for positive-scoring molecules 3-fold increase, read-out: AK-based Prestwick Library Screening Results, A. baumannii (fold increase in extracellular AK activity)) was 1 and the fold induction at 50 µM (E. cloacae; planktonic, cutoff for positive-scoring molecules 3-fold increase, read-out: AK-based Prestwick Library Screening Results, E. cloacae (fold increase in extracellular AK activity)) was 1.1. For the same compound, the fold induction at 50 µM ([2]; planktonic, cutoff for positive-scoring molecules 3-fold increase, read-out: AK-based Prestwick Library Screening Results, S. aureus (fold increase in extracellular AK activity)) was 0.9, the fold induction at 50 µM (E. faecium; planktonic, cutoff for positive-scoring molecules 3-fold increase, read-out: AK-based Prestwick Library Screening Results, E. faecium (fold increase in extracellular AK activity)) was 0.9 and the fold induction at 50 µM (E. coli; planktonic, cutoff for positive-scoring molecules 3-fold increase, read-out: AK-based Prestwick Library Screening Results, E. coli (fold increase in extracellular AK activity)) was 1. The fold induction at 50 µM (K. pneumoniae; planktonic, cutoff for positive-scoring molecules 3-fold increase, read-out: AK-based Prestwick Library Screening Results, K. pneumoniae (fold increase in extracellular AK activity)) was 0.7.
With `CCN(CC)CCOc1ccc(C(=C(Cl)c2ccccc2)c2ccccc2)cc1.O=C(O)CC(O)(CC(=O)O)C(=O)O` [Clomiphene citrate (Z,E)] the “AK-based Prestwick Library Screening Results, P. aeruginosa (fold increase in extracellular AK activity)” value (P. aeruginosa; [10]) was 1.4, the “AK-based Prestwick Library Screening Results, A. baumannii (fold increase in extracellular AK activity)” value [1, 10] was 5.4 and the “AK-based Prestwick Library Screening Results, E. cloacae (fold increase in extracellular AK activity)” value (E. cloacae; [10]) was 1.9. The “AK-based Prestwick Library Screening Results, S. aureus (fold increase in extracellular AK activity)” value [2, 10] was 2.0, the “AK-based Prestwick Library Screening Results, E. faecium (fold increase in extracellular AK activity)” value (E. faecium; [10]) was 4.4 and the “AK-based Prestwick Library Screening Results, E. coli (fold increase in extracellular AK activity)” value (E. coli; [10]) was 1.8. For the same compound, the “AK-based Prestwick Library Screening Results, K. pneumoniae (fold increase in extracellular AK activity)” value (K. pneumoniae; [10]) was 1.6.
